From patent US10588982B2, “Site-specific covalent chemical ligation to monoclonal and polyclonal immunoglobulin” (The Regents of the University of California, priority 2015, dated 2020)

Columns and labels:
trastuzumab = assay: Confirmation screen on TentaGel beads, crosslinked trastuzumab detected with anti-human IgG Cy3; settings: DNFB reacted with methylamine or methylpypridine prior to staining
From the text: Approximately 100,000 library beads were immobilized onto 30 mm polystyrene dishes by using a series of 90% DMF washes. Beads were then washed and swelled in PBS. Nonspecific binding was inhibited with blocking buffer (0.1% BSA, 0.1% Tween, and 0.05% sodium azide) for one hour in room temperature. […] Excess antibody was removed, and beads were gently washed with PBS. To facilitate crosslinking of DNDFB to the antibody of the peptide library, we raised the pH to 8.5 for one hour. After crosslinking, beads were washed sequentially with PBS, 1.00 mM pH 3 glycine, and then pH 8 TBS. Anti-human IgG-alkaline phosphatase conjugate was then added at 1:1000 dilution. After washing, beads were then developed using BCIP (5-bromo-4-chloro-3′-indolyphosphate p-toluidine salt) solution. (NBT (nitro-blue tetrazolium chloride) was not used due to high background staining with TentaGel library beads.) Using a dissecting microscope, plates were imaged and positive beads were isolated. The isolated beads were then treated with 8M guanidine/HCl to remove all non-covalently linked proteins. The beads were further washed with PBS and water. […]
In the confirmation studies, hits were synthesized on TentaGel. Staining steps were the same except 1:30 anti-human IgG conjugated to Cy3 was used to allow for fluorescence quantification. […] Bead intensity was measured and quantified using Image J. […]

SKOV3 = assay: In vitro T cell killing assay by flow cytometry; type: cell-based; settings: with activated T cells
Experimental: FIG. 30. Depicts results of an in vitro T cell killing assay monitored and quantified by flow cytometry.
In vitro cytotoxicity assays were performed to analyze the effect of the NMDS-LYX30 bi-functional immunoconjugate on T cell targeting of an α3β1 integrin expressing target cell. Target cells (SKOV3) were labeled with GFP. The labeled target cells were plated in 6-well plates at 30000 cells per well and allowed to adhere overnight at 37° C. in a humidified atmosphere of 5% CO2. PBMCs were isolated from healthy volunteer donor and activated with anti-CD3, anti-CD28 (1 ug/ml) for 72 hours prior to co-incubation with target cells. The activated PBMCs were co-cultured with target cells at E:T=10:1 ratio for 12 hours at 37° C. in a humidified atmosphere of 5% CO2 with or without 100 ng/ml immunoconjugates contained medium. At the end of the incubation, the cells were lifted by trypsin and collected from the plate. The cells were resuspended in equal volume of PBS containing 2% FBS, 1 mmol/L EDTA, Propidium iodine (PI) and Annexin V-APC for 15 minutes. The fluorescent intensity of GFP, PI and APC were recorded by a FACs machine. 10000 events of target cells were recorded by gating GFP positive channel. The percentage of live/dead cells was calculated by the different cell population containing different amount of annexin V or PI. […] The results are depicted in FIG. 30.

indole-butyrate-Lys(DNFB)-Asp-Ser linker [DS affinity element]
decrease in fluorescent intensity (trastuzumab): 50%

nivolumab: anti-PD-1 checkpoint inhibitor antibody
target cell killing (SKOV3): increased target cell killing
